Measurements: patent US8920851B2, “Treatment of neurodegenerative diseases” (Velacor Therapeutics Pty Ltd, priority 2006, dated 2014)
“Also recorded” adds a separate entry of the source.

Tests used:
[1] = system: Akt; assay: Akt phosphorylation by immunoblot in PC3 prostate carcinoma cells; assay type: cell-based, human; conditions: for Akt activation: ratio of phosphorylated Akt to total Akt versus control: serum starved PC3 cells, 500 μM, 1 hour, densitometry; for effect of hydrogen peroxide on sodium selenate induced reduction of Akt phosphorylation: sodium selenate 500 μM
Procedure: Such dephosphorylation may be the result of a direct inhibitory effect on the Akt protein itself, or alternatively, can be similarly achieved indirectly by boosting a negative regulator or inhibiting a positive regulator of Akt phosphorylation. […] PC3 prostate carcinoma cells were plated in 100 mm dishes, and when 70-80% confluent serum starved overnight. […] Cells were lysed, and the level of Akt Ser473 phosphorylation determined by immunoblot analysis with an activation specific antibody, and comparison made to levels of Akt protein expressed. To determine the effect on purified Akt, similarly plated but untreated PC3 cells were lysed in RIPA (minus phosphatase inhibitors), a stringent cell lysis buffer that minimizes maintenance of protein-protein complexes. […] The immunoprecipitated protein was then resolved and the level of activated Akt determined by immunoblot analysis as described above.
A reduction in net Akt activity could be achieved indirectly by either preventing the initial Akt phosphorylation, or alternatively, increasing Akt dephosphorylation [Kohn et. al. 1996]. […] Initially okadaic acid, a polyether toxin from red-tide algae (and causative agent of diarrhoetic shellfish poisoning) which inhibits the phospho-protein phosphatases PP1 and PP2A, two phosphatases implicated in the regulation of Akt dephosphorylation was used [Fernandez et al., 2002]. 5×10^5 PC3 prostate carcinoma cells were plated per well of a 6 well plate, allowed attach for 8 h, and then serum starved overnight. […] Lysed cells were resolved by SDS-PAGE, then probed for Akt phosphorylation at the Ser473 residue by immunoblot analysis with an antibody that specifically recognizes Akt when phosphorylated at this site, and comparison made with the total levels of Akt protein expressed (FIG. 2A).
This panel included tautamycin 500 nM (PP1), okadaic acid 500 nM (low dose PP2A>PP1), endothall A (PP2A) 100 μM, calyculin A 2 nM (low dose PP1>PP2A), calyculin A 10 nM (high dose inhibits PP1 and PP2A) and cyclosporine A 400 ng/ml (PP2B). […] Again, lysed cells were resolved by SDS-PAGE, then membranes probed for Akt phosphorylation at the Ser^473 residue by immunoblot analysis with an antibody that specifically recognizes Akt when phosphorylated at this site, and comparison made with the total levels of Akt protein expressed.
5×10^5 PC3 prostate carcinoma cells were plated per well in a 6-well plate, allowed to attach for 8 h, and then serum starved overnight. […] Equal amounts of whole cell lysates were resolved, and then subjected to immunoblot analysis to determine the level of phosphorylated Akt Ser^473. Comparison was then made with the total level of Akt protein expressed.
The phosphorylation status of Akt in whole cell lysates was determined using activation specific antibodies.
Other inorganic (sodium selenite, selenium dioxide, selenium sulphide and selenious acid) and organic (methylselenocysteine, selenocystine) selenium species were tested for their ability to affect Akt activation. All forms were dissolved in water with the exception of selenium sulphide which was solubilised in DMSO, and added to serum starved PC3 cells at a concentration of 500 μM for 1 hour, Whole cell lysates were then resolved, and the activation status of Akt determined by immunoblotting with an antibody that specifically recognizes Akt when phosphorylated at the Ser473 site, as well as the total level of Akt expression (pan Akt). To quantify the degree of Akt activation, immunoblots were digitalised, and the ratio of phosphorylated Akt to total Akt determined by densitometry.

[2] = target: T1, PP2A (Homo sapiens, UniProt P67775); assay: PP2A immunoprecipitation from treated PC3 cells and phosphatase assay; assay type: cell-based; conditions: PC3 cells treated 1 hour; sodium selenate 500 μM, endothall A 100 μM
T1 construct: the phosphatase activity of the general pool of intracellular PP2A; endogenous in cells; host or cells: PC3 prostate carcinoma cells
Procedure: Free phosphate was removed by passing cell lysates through desalting columns, and measured phosphatase activity using a phosphor-serine peptide and malachite green.
1×10^6 PC3 cells were plated in 60 mm plates and allowed attach for 8 h, then serum starved over night. Following various treatments as indicated, the media was aspirated and cells washed once with TBS. Cells were lysed in 0.3 ml of lysis buffer (20 mM Tris-HCl, pH 7.0, 1% Igepal-CA, 2 mM EDTA, 2 mM EGTA, 1× Complete Protease Inhibitor Cocktail) and phosphates removed by passing the lysate through a 2 ml Zeba Desalt Spin Column (Pierce #89890). Protein concentration of the desalted lysate was determined by the BCA assay as previously described. 100-150 μg of total protein was immunoprecipitated with 4 μg of anti-PP2A monoclonal antibody and 30 μl of Protein A-sepharose slurry at 4° C. for 2 h. Samples were then pelleted at 14,000 rpm for 1 min, washed three times in excess TBS and once with pNPP assay buffer. After the final spin all of the supernatant was carefully removed and 500 μM of phosphor-threonine peptide in a final volume of 80 μl added to the beads. Samples were incubated at 30° C. for 10 min with agitation, and the reaction terminated by the addition of malachite green solution. Absorbance was read at 590 nm for each sample in duplicate.

[3] = target: T2, human PP2A A-C heterodimer (Homo sapiens, UniProt P67775); assay type: biochemical; conditions: 5 mM of each selenium compound
T2 construct: purified PP2A A-C dimer purified from human red blood cells; purchased Upstate 14-111 (lot #28002); host or cells: human red blood cells (native purification)
Procedure: In initial assays a chemical substrate of phosphatase enzymatic action, para-nitrophennylphosphate (pNPP) was used, which following hydrolysis of the phosphate moiety generates para-nitrophenol, an intensely yellow chromogen which is soluble under alkaline conditions. […] Absorbance of each sample was measured in duplicate at 405 nm with 590 nm as a reference. PP2A activity was calculated using the following equation: activity=(sample vol in liters)×A405/1.78×104M^−1 cm^−1 (extinction coefficient)×0.25 cm×15 minutes×0.05 U enzyme Data is presented as mean relative phosphatase activity ±SEM from at least three independent experiments.
Para-nitrophennylphosphate (PNPP) is a chemical substrate of phosphatase enzymes, which following hydrolysis of the phosphate moiety generates para-nitrophenol, an intensely yellow chromogen, soluble under alkaline conditions. In assays measuring relative phosphatase activity, 0.05 U of purified PP2A was mixed with 5 μl of 40 mM NiCl2 and 5 μl of BSA solution (5 mg/ml) in a microcentrifuge tube. Various treatments were added as indicated, and the volume adjusted to 80 μl with pNPP assay buffer. Samples were pre-incubated at 37° C. for 15 min. pNPP substrate was freshly prepared before each assay by dissolving 1.5 mg/ml pNPP in 50 mM Tris-HCl, pH 7.0. To start the phosphatase reaction, 120 μl of pNPP substrate was added, and samples incubated for a further 15 min at 37° C. Absorbance of each sample was measured in duplicate at 405 nm with 590 nm as a reference. PP2A activity was calculated using the following equation: activity=(Sample volume in liters)×A405/1.78×10^4M^−1cm^−1 (Extinction coefficient)×0.25 cm×15 min×0.05 U enzyme.

[4] = target: T3, PP2A A-C dimer (Homo sapiens, UniProt P67775); assay: Phosphopeptide / malachite green assay with purified PP2A; assay type: biochemical; conditions: 50 μM of each selenium compound
T3 construct: purified PP2A A-C dimer purified from human red blood cells; purchased Upstate 14-111 (lot #28002); host or cells: human red blood cells (native purification)
Procedure: The amount of inorganic phosphate released by enzymatic activity was determined by the addition of malachite green, and absorbance read at 590 nm. Malachite green forms a stable green complex in the presence of molybdate and orthophosphate, allowing the concentration of inorganic phosphate present to be measured. Data is presented as mean absorbance at 590 nm from at least three independent experiments, ±SEM.
1 mg of synthetic phosphopeptides K-R-pT-I-R-R (Upstate #12-219) and R-R-A-pS-V-A (Upstate #12-220) were dissolved in 1.10-1.285 ml of dH2O to prepare a 1 mM solution, then aliquoted and stored at −20° C. until use. 0.01-0.05 U of purified PP2A A-C dimer purified from human red blood cells, or 0.05 U of rabbit PP1 purified from skeletal muscle was mixed with 500 μM of phosphopeptide and incubated in the presence of various treatments as indicated at 37° C. on a heating block for 15 min. Each reaction was made up to a total volume of 25 μl with pNPP buffer (50 mM Tris-HCl, pH 7.0, 100 μM CaCl2). The enzyme reaction was terminated by adding 100 μl of malachite green solution (0.034% malachite green in 10 mM ammonium molybdate, 1 N HCl, 3.4% ethanol, 0.01% Tween-20). Malachite green forms a stable green complex in the presence of molybdate and orthophosphate, allowing the amount of inorganic phosphate present to be measured. Absorbance was read in duplicate for each sample at 590 nm.

[5] = target: T4, purified human PP2A A-C dimer (Homo sapiens, UniProt P67775); assay: Free sulfhydryl groups in purified PP2A (Ellman's assay); assay type: biochemical; conditions: 0.01 U PP2A, 10 mM of each agent, 15 min at 37° C.
T4 construct: purified PP2A A-C dimer purified from human red blood cells; purchased Upstate 14-111 (lot #28002); host or cells: human red blood cells (native purification)
Text: Inactivating reversible oxidation of protein phosphatases involves the modification of a critical cysteine residue within the catalytic domain, ultimately leading to the formation of either intramolecular disulphide or sulphenyl-amide bonds. […] Ellman's reagent (5,5′-Dithio-bis(2-nitrobenzoic acid), DTNB) rapidly forms a disulphide bond with free sulfhydryl groups with the release of chromogenic thiolate ions. […] The quantity of free sulfhydryl groups present within the phosphatase was then determined by the addition of Ellman's reagent and subsequent measurement of absorbance at 412 nm (FIG. 5C).
The change in free sulfhydryl groups in purified PP2A following various treatments was determined using Ellman's Reagent. To 0.01 U of PP2A was added to 37.5 μl of dilution buffer (30 mM Tris-HCl, 3 mM EDTA, pH 8.2), 12.5 μl DTNB reagent (Ellman's reagent) and 200 μl of methanol. Samples were incubated for 5 min at RT, and then extinction measured in duplicate for each at 412 nm.

[6] = system: PC3 prostate carcinoma cells; assay: Intracellular redox state assay (DCFDA, flow cytometry)
Procedure: 1×10^6 PC3 prostate carcinoma cells were plated in 60 mm dishes, allowed to attach for 8 h, and serum starved overnight. Cells were incubated with DCFDA 5 μM for 15 min prior to treatment.
The proportion of fluorescent cells was then determined by flow cytometry.
Intracellular redox state was determined using 2′,7′-dichlorodihydrofluorescein diacetate (DCFDA). […] Cells were equilibrated with 5 μM of DCFDA for 15 min prior to various treatments. Adherent cells were then harvested, washed twice with PBS and the proportion of fluorescent cells determined immediately by flow cytometry.

[7] = system: GSK-3β; assay: GSK-3β Ser9 phosphorylation by immunoblot in PC3 cells; assay type: cell-based, human; conditions: densitometry, sodium selenate 500 μM 3 h, LY294002 50 μM 1 h
Text: The metabolic effects of insulin on glycogen synthesis are mediated by glycogen synthase kinase-3 (GSK-3), a direct downstream substrate of Akt. GSK-3 is a ubiquitously expressed serine/threonine kinase that phosphorylates and inactivates glycogen synthase. In response to activation of the insulin receptor, Akt phosphorylates and inactivates the repressor GSK-3, thereby stimulating glycogen synthesis [Cross et al., 1995]. […] Resolved whole cell lysates were subjected to immunoblot analysis with an antibody that specifically recognizes GSK-3β only when phosphorylated at Ser9, a site critical for its kinase activity, and comparison made with the cytoskeletal protein β-tubulin as a loading control.

T4 sequence (P67775 whole entry): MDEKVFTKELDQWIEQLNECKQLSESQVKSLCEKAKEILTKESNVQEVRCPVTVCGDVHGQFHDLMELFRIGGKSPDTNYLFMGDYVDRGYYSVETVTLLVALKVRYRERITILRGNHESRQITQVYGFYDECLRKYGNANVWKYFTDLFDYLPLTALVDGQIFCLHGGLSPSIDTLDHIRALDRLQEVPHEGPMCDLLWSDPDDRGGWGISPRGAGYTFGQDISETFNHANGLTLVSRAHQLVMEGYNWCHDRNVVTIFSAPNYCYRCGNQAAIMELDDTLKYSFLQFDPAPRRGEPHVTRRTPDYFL
T4 sequence (P30153 2-589 partner limits assumed): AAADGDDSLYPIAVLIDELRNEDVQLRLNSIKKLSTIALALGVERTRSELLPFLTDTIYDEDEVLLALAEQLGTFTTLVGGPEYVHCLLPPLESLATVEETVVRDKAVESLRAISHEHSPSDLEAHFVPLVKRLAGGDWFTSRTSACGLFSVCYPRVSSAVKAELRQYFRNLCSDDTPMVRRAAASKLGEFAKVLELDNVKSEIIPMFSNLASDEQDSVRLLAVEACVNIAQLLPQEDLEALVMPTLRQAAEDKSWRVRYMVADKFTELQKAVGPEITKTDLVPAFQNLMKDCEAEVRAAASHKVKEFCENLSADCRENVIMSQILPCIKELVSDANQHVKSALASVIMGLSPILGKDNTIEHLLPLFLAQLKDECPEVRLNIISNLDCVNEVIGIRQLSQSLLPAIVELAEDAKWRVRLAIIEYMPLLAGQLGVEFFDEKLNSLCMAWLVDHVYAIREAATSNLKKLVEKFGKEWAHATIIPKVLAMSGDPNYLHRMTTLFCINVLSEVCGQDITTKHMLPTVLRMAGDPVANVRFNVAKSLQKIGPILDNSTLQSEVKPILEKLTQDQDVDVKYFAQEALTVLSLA
T3 sequence (P67775 whole entry): as the sequence (P67775 whole entry) above
T3 sequence (P30153 2-589 partner limits assumed): as the sequence (P30153 2-589 partner limits assumed) above
T2 sequence (P67775 whole entry): as the sequence (P67775 whole entry) above
T2 sequence (P30153 2-589 partner limits assumed): as the sequence (P30153 2-589 partner limits assumed) above
T1 sequence (P67775 whole entry): as the sequence (P67775 whole entry) above
T1 sequence (P30153 2-589 partner limits assumed): as the sequence (P30153 2-589 partner limits assumed) above

O=C(O)[C@@H]1[C@H](C(=O)O)[C@H]2CC[C@@H]1O2 [endothall A, reference compound]
effect of PPP inhibitor pretreatment on sodium selenate induced Akt Ser473 dephosphorylation [1]: completely blocked sodium selenate induced Akt dephosphorylation
phosphatase activity of immunoprecipitated PP2A (general intracellular pool) [2]: significantly reduced phosphatase activity

N[C@@H](C[SeH])C(=O)O [selenocysteine]
Akt activation: ratio of phosphorylated Akt to total Akt versus control [1]: induce activation of Akt above control (con) levels

O=[Se](O)O [selenous acid]
Akt activation: ratio of phosphorylated Akt to total Akt versus control [1]: induce activation of Akt above control (con) levels

C[Se]CC[C@H](N)C(=O)O [selenomethionine, reference compound]
Akt phosphorylation at Ser473 ([1]; PC3 cells, 500 μM of each compound, various timepoints): did not affect the level of Akt phosphorylation; also recorded: did not affect the level of phosphorylation of Akt
PP2A phosphatase activity, pNPP as substrate [3]: neither sodium selenite nor selenomethionine significantly affected PP2A phosphatase activity
PP2A phosphatase activity, serine phosphopeptide as substrate [4]: neither sodium selenite nor selenomethionine significantly affected PP2A phosphatase activity

OO [hydrogen peroxide]
effect of hydrogen peroxide on sodium selenate induced reduction of Akt phosphorylation ([1]; PC3 cells, hydrogen peroxide 0.25 mM for 10 min): unaffected
effect of hydrogen peroxide on sodium selenate induced reduction of Akt phosphorylation ([1]; PC3 cells, hydrogen peroxide 1 mM for 10 min): completely abolished the dephosphorylating effect of sodium selenate
number of free sulfhydryl groups in PP2A [5]: significantly reduced the number of free sulfhydryl groups
generation of intracellular oxygen free radicals ([6]; hydrogen peroxide 500 μM, 10 min): marked increase in the generation of intracellular oxygen free radicals

S=[Se]=S [selenium sulfide]
Akt activation: ratio of phosphorylated Akt to total Akt versus control [1]: induce activation of Akt above control (con) levels

CCN1C(=O)C=CC1=O [NEM, N-ethylmaleimide, reference compound]
number of free sulfhydryl groups in PP2A [5]: significantly reduced the number of free sulfhydryl groups

O=[Se]=O [selenium dioxide]
Akt activation: ratio of phosphorylated Akt to total Akt versus control [1]: induce activation of Akt above control (con) levels

O=c1cc(N2CCOCC2)oc2c(-c3ccccc3)cccc12 [LY294002, reference compound]
reduction of GSK-3β phosphorylation levels [7]: ~60%

CC(=O)N[C@@H](CS)C(=O)O [NAC, N-acetylcysteine]
basal proportion of fluorescent cells (ROS) ([6]; 1 h, sodium selenate 500 μM, NAC 1 mM): small reduction in the basal proportion of fluorescent cells
